Source: US10858348B2, “Salt forms of 4-cyano-N-(4,4-dimethylcyclohex-1-en-1-yl)-6-(2,2,6,6-Tetr amethyltetrahydro-2H-pyran-4-yl)pyridin-3-yl)-1H-imidazole-2-carboximide” (Janssen Pharmaceutica NV, priority 2016, dated 2020)
Values after ≈ are worked out from the molar mass of the structure shown.

Test: physchem
Assay type: physicochemical
Details: organic solvent or mixture

solubility: ~130 mg/mL (≈ 282 mM)
SMILES: CC1(C)CC=C(c2nc(C3CC(C)(C)OC(C)(C)C3)ccc2NC(=O)c2nc(C#N)c[nH]2)CC1 [Compound A, 4-cyano-N-[2-(4,4-dimethylcyclohex-1-en-1-yl)-6-(2,2,6,6-tetramethyltetrahydro-2H-pyran-4-yl)pyridin-3-yl]-1H-imidazole-2-carboxamide]
